Source: PMC6900016, “Synthesis of Indomorphan Pseudo‐Natural Product Inhibitors of Glucose Transporters GLUT‐1 and ‐3” (Angewandte Chemie (International Ed. in English), 2019)

Each molecule was assayed on HCT116 (assay: cells). Conditions: Homo sapiens, HCT-116, 0.5 h; 2DG uptake.
Design: 2-deoxyglucose uptake inhibition, semi-automated resazurin/diaphorase fluorescence read-out of 2DG6P
Experimental: Resazurin-based 2DG uptake assay (semi-automated high throughput) All buffers, reagents and steps were identical with those described for the manual screening Washing and [compound left out] addition steps were done using an automated cell washer or a multidrop device, respectively. Screening was performed in a 384-well plates. 15,000 HCT116 cells/well seeded into 384-well black-walled, clear bottomed plates (CellBIND, Corning) and incubated overnight. Compounds were added at 30 µM (final concentration for screening or serial dilutions staring from 30 µM for IC50 determinations) from DMSO stocks using the acoustic nanoliter dispenser ECHO 520. Fluorescence intensity was read from the bottom with a SpectraMax Paradigm Multi-Mode Microplate Reader (Molecular devices) using SUPPORTING INFORMATION 259 control (which was set to 100 %) and cells without 2DG (set to 0 %) using Graph Pad Prism 5 or 6 software and IC50 values were determined using a four-parameter fit. The observed difference in the obtained IC50 values for Glupin in the automated screening vs. manually performed assay is most likely attributed to the minituarization that is required for high-troughput screening and usually requires different plate format (384 vs. 96-well plates) and different cell number. In this case, the automated assay was performed in 384-well plates (vs. 96-well plates for the manual assay) with 15,000 cells per well (vs. 40,000 cells per well in the 96-well plates). For kinetic measurements, 15,000 cells were seeded into black CellBIND 384-well plates (Corning) and allowed to attach overnight. Then, the plates were washed 3X with KRB buffer containing 0.1%BSA and treated with different concentrations of 2DG (0-60mM) and Glupin (0-1µM) for 30s to 30min. The uptake was determined using the resazurin/diaphorase system as described above. 2DG uptake was stopped by aspirating the 2DG solution followed by quick wash with ice-cold KRB buffer (0.1 % BSA). Km and Vmax were determined by fitting the data according to Michaelis-Menten using non-linear fitting. The glucose uptake assay monitored the inhibition of 2‐deoxyglucose (2DG) uptake as described by Yamamoto et al.25 Briefly, 2DG uptake is determined by quantification of the 2DG‐6‐phosphate (2DG6P) that accumulates inside the cells by using the diaphorase‐resazurin/‐resorufin system (see Figure S7 a).

IC50 [µM] | SMILES
16 ± 1 | CNC(=O)Cn1c2c(c3ccccc31)CC1CC2C(OC)CN1C(=O)Cc1cccs1 (stereo not drawn) [5au]
> 30 | CNC(=O)Cn1c2c(c3ccccc31)CC1CC2C(OC)CN1C(=O)c1cnccn1 (stereo not drawn) [5av]
> 30 | CNC(=O)Cn1c2c(c3ccccc31)CC1CC2C(OC)CN1C(=O)Nc1cccc(C(F)(F)F)c1 (stereo not drawn) [5az]
1.45 ± 0.6 | CNC(=O)Cn1c2c(c3ccccc31)CC1CC2C(OC)CN1C(=O)c1cccnc1SC (stereo not drawn) [5m]
3.4 ± 0.3 | CCOC(=O)Cn1c2c(c3ccccc31)CC1CC2C(OC)CN1C(=O)c1ccco1 (stereo not drawn) [5s]

Second part, the molecule before the results:

SMILES | IC50 [µM]
C=CCOC1CN(C(=O)c2cccnc2SC)C2Cc3c(n(CC(=O)OCC)c4ccccc34)C1C2 (racemic) [5z, (±)-Ethyl 2-(5-(allyloxy)-3-(2-(methylthio)nicotinoyl)-1,2,3,4,5,6-hexahydro-7H-2,6-methanoazocino[5,4-b]indol-7-yl)acetate] | 0.12 ± 0.02
CCOC(=O)Cn1c2c(c3ccccc31)CC1CC2C(OC)CN1C(=O)c1cccnc1SC (racemic) [(±)-Glupin] | 0.055 ± 0.017
CCOC(=O)Cn1c2c(c3ccccc31)CC1CC2C(OC)CN1C(=O)c1cnccn1 (stereo not drawn) [5aw] | 2 ± 0.4
COC1CN(C(=O)c2cnccn2)C2Cc3c(n(CC(N)=O)c4ccccc34)C1C2 (stereo not drawn) [5ax] | > 30
CNC(=O)Cn1c2c(c3ccccc31)CC1CC2C(OC)CN1C(=O)N1CCOCC1 (stereo not drawn) [5ay] | > 30
CCOC(=O)Cn1c2c(c3cc(C(=O)OCC)ccc31)CC1CC2C(OC)CN1C(=O)c1cccnc1SC (stereo not drawn) [5i, Ethyl 7-(2-ethoxy-2-oxoethyl)-5-methoxy-3-(2-(methylthio)nicotinoyl)-2,3,4,5,6,7-hexahydro-1H-2,6-methanoazocino[5,4-b]indole-10-carboxylate] | > 30
CCOC(=O)Cn1c2c(c3ccccc31)CC1CC2C(OC)CN1C(=O)N1CCOCC1 (stereo not drawn) [5r] | 3.16
